Test results published in ChEMBL document CHEMBL1201862, “PubChem BioAssay data set” (2004).
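In this assay, cells in 96-well plates receive the compound at five concentrations for 48 hours. Endpoints are linearly interpolated between the surrounding concentrations. At the GI50, growth is halved.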 Activity calls are given as the source filed them. No stated cut-off is given here; in the data, active = GI50 up to about 1.1 µM and inactive = higher.

Assays:
Assay in all cases: NCI-60 cell line screen, 48 h
[1] = test system: 786-0
[2] = test system: A498
[3] = test system: A549
[4] = test system: ACHN
[5] = test system: BT-549
[6] = test system: CCRF-CEM
[7] = test system: COLO 205
[8] = test system: DU-145
[9] = test system: EKVX
[10] = test system: HCC 2998
[11] = test system: HCT-116
[12] = test system: HL-60
[13] = test system: HOP-62
[14] = test system: HOP-92
[15] = test system: HT-29
[16] = test system: Hs-578T
[17] = test system: IGROV-1
[18] = test system: K562
[19] = test system: KM12
[20] = test system: LOX IMVI
[21] = test system: M14
[22] = test system: MCF7
[23] = test system: MDA-MB-231
[24] = test system: MDA-MB-435
[25] = test system: MDA-N
[26] = test system: MOLT-4
[27] = test system: Malme-3M
[28] = test system: NCI-H226
[29] = test system: NCI-H23
[30] = test system: NCI-H460
[31] = test system: NCI-H522
[32] = test system: OVCAR-3
[33] = test system: OVCAR-4
[34] = test system: OVCAR-5
[35] = test system: OVCAR-8
[36] = test system: PC-3
[37] = test system: RPMI-8226
[38] = test system: RXF 393
[39] = test system: SF-268
[40] = test system: SF-295
[41] = test system: SF-539
[42] = test system: SK-MEL-28
[43] = test system: SK-MEL-5
[44] = test system: SK-OV-3
[45] = test system: SN12C
[46] = test system: SNB-19
[47] = test system: SNB-75
[48] = test system: SR
[49] = test system: SW-620
[50] = test system: T47D
[51] = test system: TK-10
[52] = test system: U-251
[53] = test system: UACC-257
[54] = test system: UACC-62
[55] = test system: UO-31
[56] = test system: CAKI-1
[57] = test system: HCT-15
[58] = test system: NCI/ADR-RES
[59] = test system: SK-MEL-2

Measured: GI50

O=C(Nn1c(-c2ccccc2)nc2ccccc2c1=O)c1ccc(CS)cc1
inactive: [1] 24.4 µM | [2] 24.5 µM | [3] 36.7 µM | [4] 54.5 µM | [5] 22.4 µM | [6] 5.89 µM | [7] 60.3 µM | [8] 39.4 µM | [9] 36.7 µM | [10] > 100 µM | [11] 39.4 µM | [12] 16 µM | [13] > 100 µM | [14] 34.9 µM | [15] 53 µM | [16] 35.6 µM | [17] 26.1 µM | [18] 38.2 µM | [19] 81.1 µM | [20] 1.67 µM | [21] 47.6 µM | [22] 29.8 µM | [23] 37 µM | [24] 41.8 µM | [25] 61.2 µM | [26] 16.6 µM | [27] 36.6 µM | [28] 37.7 µM | [29] 49.9 µM | [30] > 100 µM | [31] 52.2 µM | [32] 67.6 µM | [33] 98.4 µM | [34] > 100 µM | [35] 57.1 µM | [36] 20.2 µM | [37] 33.2 µM | [38] 44.7 µM | [39] 26.2 µM | [40] > 100 µM | [41] 24.5 µM | [42] 69.8 µM | [43] 11.8 µM | [44] 82.8 µM | [45] 36.6 µM | [46] > 100 µM | [47] 39.7 µM | [48] 19.5 µM | [49] 31.1 µM | [50] > 100 µM | [51] > 100 µM | [52] 27.6 µM | [53] > 100 µM | [54] 27.7 µM | [55] 46.3 µM

Cn1cc(-c2csc(-c3cn(C)c4ccccc34)n2)c2ccccc21
> 100 µM: [57]
inactive: [1] 17.2 µM | [2] 12.6 µM | [3] 37.6 µM | [4] 21.6 µM | [5] 56.4 µM | [56] 17.8 µM | [6] > 100 µM | [7] > 100 µM | [8] 42.9 µM | [11] 43.5 µM | [12] > 100 µM | [13] 17.6 µM | [14] 20.8 µM | [15] > 100 µM | [16] > 100 µM | [17] 27 µM | [18] 11.2 µM | [19] 43.3 µM | [20] 36.4 µM | [21] 26.7 µM | [22] 45.5 µM | [23] 17.3 µM | [24] 26.4 µM | [25] 24.9 µM | [26] 14.1 µM | [27] 19.1 µM | [28] 32.2 µM | [29] 84.5 µM | [30] 26.5 µM | [31] 76.7 µM | [58] > 100 µM | [32] 23.5 µM | [33] 22.2 µM | [34] 95.9 µM | [35] 25.6 µM | [36] 21.9 µM | [37] 20.7 µM | [38] 14.1 µM | [39] 58.2 µM | [40] 23.4 µM | [42] 61.5 µM | [59] 38.8 µM | [43] 26.9 µM | [45] 47.8 µM | [46] 42.7 µM | [49] 59.4 µM | [50] 2.81 µM | [51] 27 µM | [52] 32.4 µM | [53] 48.6 µM | [54] 32.2 µM | [55] > 100 µM
